pEC50, pIC50: −log10 of the molar value. Each block holds one compound with its values, some of them ahead of it.
Key:
Format in all cases: cell-based
hPR [1] = biological target: T1, hPR (Homo sapiens, UniProt P06401); assay: T47D alkaline phosphatase assay, antagonist mode; details: T47D human breast cancer cells; for Emax: read-out: hPR Antagonists T47D Cells Eff. (%)
T1 sequence (P06401 679-933 limits assumed): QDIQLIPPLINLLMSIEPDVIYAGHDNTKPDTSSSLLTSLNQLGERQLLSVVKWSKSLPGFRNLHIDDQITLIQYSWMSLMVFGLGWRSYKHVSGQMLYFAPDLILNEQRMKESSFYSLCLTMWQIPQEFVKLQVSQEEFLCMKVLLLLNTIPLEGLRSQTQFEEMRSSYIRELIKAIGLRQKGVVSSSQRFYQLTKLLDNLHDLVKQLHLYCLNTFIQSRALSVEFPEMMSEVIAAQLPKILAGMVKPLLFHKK

hPR [2] = biological target: T1, hPR; assay: T47D alkaline phosphatase assay, agonist mode; details: T47D human breast cancer cells; for Emax: T47D, read-out: hPR Agonist T47D cells Eff. (%)
hPR [3] = biological target: T2, hPR (Homo sapiens, UniProt P06401); assay: hPR cotransfection assay in CV-1 cells, agonist mode; details: for hPR Agonist CV-1 Cells Eff. (%) / Emax: relative to maximal response of progesterone as 100%; for Emax: CV-1, CV-1 cells, read-out: hPR Agonist CV-1 Cells Eff. (%); for EC50: Tables 3 and 4, values without footnote, read-out: hPR agonist potencies (EC50 in nM) in the cotransfection assay
T2 sequence (P06401 1-933): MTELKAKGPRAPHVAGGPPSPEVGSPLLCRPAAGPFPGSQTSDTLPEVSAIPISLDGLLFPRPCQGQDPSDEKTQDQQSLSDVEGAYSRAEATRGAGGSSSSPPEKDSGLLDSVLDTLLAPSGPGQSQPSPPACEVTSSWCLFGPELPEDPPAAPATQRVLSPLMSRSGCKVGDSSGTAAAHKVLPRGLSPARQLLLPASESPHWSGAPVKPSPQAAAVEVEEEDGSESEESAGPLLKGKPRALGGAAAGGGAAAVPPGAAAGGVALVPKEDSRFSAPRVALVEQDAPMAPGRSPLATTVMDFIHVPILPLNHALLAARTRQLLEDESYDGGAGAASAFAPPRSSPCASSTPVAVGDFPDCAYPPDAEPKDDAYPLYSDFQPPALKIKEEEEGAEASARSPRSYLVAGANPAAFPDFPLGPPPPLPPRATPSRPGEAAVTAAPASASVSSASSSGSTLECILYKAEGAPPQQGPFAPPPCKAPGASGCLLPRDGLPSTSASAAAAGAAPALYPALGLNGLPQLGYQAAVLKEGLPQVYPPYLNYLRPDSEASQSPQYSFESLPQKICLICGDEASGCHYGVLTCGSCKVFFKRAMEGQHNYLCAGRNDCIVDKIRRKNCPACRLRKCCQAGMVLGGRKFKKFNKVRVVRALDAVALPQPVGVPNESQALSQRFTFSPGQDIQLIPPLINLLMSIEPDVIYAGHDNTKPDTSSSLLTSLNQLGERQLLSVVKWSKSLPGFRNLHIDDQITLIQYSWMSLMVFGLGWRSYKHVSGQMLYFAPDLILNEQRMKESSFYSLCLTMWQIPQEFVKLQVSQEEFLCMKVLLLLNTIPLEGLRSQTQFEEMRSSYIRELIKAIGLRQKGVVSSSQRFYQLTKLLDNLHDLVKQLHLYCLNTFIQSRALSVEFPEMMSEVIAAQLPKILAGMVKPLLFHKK

hPR [4] = biological target: T2, hPR; assay: hPR cotransfection assay in CV-1 cells, antagonist mode; details: for hPR Antagonist CV-1 Cells Eff. (%) / Emax: maximal inhibition of reference agonist at EC50 concentration; for Emax: CV-1, CV-1 cells, read-out: hPR Antagonist CV-1 Cells Eff. (%)

SMILES: CC1=CC(C)(C)Nc2ccc3c(c21)/C(=C/c1ccccc1F)Oc1ccc(Cl)cc1-3 [Formula II X=9-Cl 2-F-Ph, reference compound]
EC50 (hPR [3]): 26.5 nM

SMILES: CC1=CC(C)(C)Nc2ccc3c(c21)/C(=C/c1cc(F)ccc1C)Oc1ccc(Cl)cc1-3 [Formula II X=9-Cl 2-Me-5-F-Ph, reference compound]
EC50 (hPR [3]): 2.1 nM

SMILES: CC1=CC(C)(C)Nc2ccc3c(c21)/C(=C/c1ccccc1C)Oc1ccc(Cl)cc1-3 [Formula II X=9-Cl 2-Me-Ph, reference compound]
EC50 (hPR [3]): 8.5 nM

SMILES: CC1=CC(C)(C)Nc2ccc3c(c21)/C(=C/c1cccc(F)c1)Oc1ccc(Cl)cc1-3 [Formula II X=9-Cl 3-F-Ph, reference compound]
EC50 (hPR [3]): 11.6 nM

SMILES: CC1=CC(C)(C)Nc2ccc3c(c21)/C(=C/c1ccccc1)Oc1ccc(Cl)cc1-3 [Formula II X=9-Cl Phenyl, reference compound]
EC50 (hPR [3]): 6.24 nM

SMILES: CC1=CC(C)(C)Nc2ccc3c(c21)/C(=C/c1cc(F)ccc1F)Oc1ccc(F)cc1-3 [Formula II X=9-F 2,5-diF-Ph, reference compound]
EC50 (hPR [3]): 3 nM

SMILES: CC1=CC(C)(C)Nc2ccc3c(c21)/C(=C/c1ccccc1Cl)Oc1ccc(F)cc1-3 [Formula II X=9-F 2-Cl-Ph, reference compound]
EC50 (hPR [3]): 12 nM

SMILES: CC1=CC(C)(C)Nc2ccc3c(c21)/C(=C/c1ccccc1F)Oc1ccc(F)cc1-3 [Formula II X=9-F 2-F-Ph, reference compound]
EC50 (hPR [3]): 7.3 nM

SMILES: CC1=CC(C)(C)Nc2ccc3c(c21)/C(=C/c1cccc(F)c1C)Oc1ccc(F)cc1-3 [Formula II X=9-F 2-Me-3-F-Ph, reference compound]
EC50 (hPR [3]): 8.4 nM

SMILES: CC1=CC(C)(C)Nc2ccc3c(c21)/C(=C/c1cc(F)ccc1C)Oc1ccc(F)cc1-3 [Formula II X=9-F 2-Me-5-F-Ph, reference compound]
EC50 (hPR [3]): 2.1 nM

SMILES: CC1=CC(C)(C)Nc2ccc3c(c21)/C(=C/c1cccs1)Oc1ccc(F)cc1-3 [Formula II X=9-F 2-Thienyl, reference compound]
EC50 (hPR [3]): 18 nM

SMILES: CC1=CC(C)(C)Nc2ccc3c(c21)/C(=C/c1ccc(F)cc1)Oc1ccc(F)cc1-3 [Formula II X=9-F 4-F-Ph, reference compound]
EC50 (hPR [3]): 3.95 nM

SMILES: CC1=CC(C)(C)Nc2ccc3c(c21)/C(=C/c1ccccc1)Oc1ccc(F)cc1-3 [Formula II X=9-F Phenyl, reference compound]
EC50 (hPR [3]): 5.25 nM

SMILES: CC1=CC(C)(C)Nc2ccc3c(c21)/C(=C/c1cccc(F)c1)Oc1ccc(C)cc1-3 [Formula II X=9-Me 3-F-Ph, reference compound]
EC50 (hPR [3]): 7.95 nM

SMILES: CC1=CC(C)(C)Nc2ccc3c(c21)/C(=C/c1cc(F)ccc1F)Oc1ccc(O)cc1-3 [Formula II X=9-OH 2,5-diF-Ph, reference compound]
EC50 (hPR [3]): 10 nM

SMILES: COc1ccc2c(c1)-c1ccc3c(c1/C(=C/c1ccccc1C)O2)C(C)=CC(C)(C)N3 [Formula II X=9-OMe 2-Me-Ph, reference compound]
EC50 (hPR [3]): 67.5 nM

SMILES: CC1=CC(C)(C)Nc2ccc3c(c21)/C(=C/c1cc(F)ccc1C)Oc1ccccc1-3 [Formula II X=H 2-Me-5-F-Ph, reference compound]
EC50 (hPR [3]): 2.6 nM

Continued, in another order:

Emax (hPR [1]): 29% | pIC50 (hPR [1]; read-out: hPR Antagonists T47D Cells IC50): 5.39 | pEC50 (hPR [2]): < 5.00 | pEC50 (hPR [3]; CV-1 cells, read-out: hPR Agonist CV-1 Cells EC50): 7.55 | hPR Agonist CV-1 Cells Eff. (%) (hPR [3]; CV-1 cells): 26% | pIC50 (hPR [4]; CV-1 cells): 7.62 | hPR Antagonist CV-1 Cells Eff. (%) (hPR [4]; CV-1 cells): 62%
SMILES: CC1=CC(C)(C)Nc2ccc3c(c21)C(c1ccc(Cl)c(C)c1)Oc1c(F)cc(F)cc1-3 (single isomer, unassigned; (+)) [Compound 39, (+)-7,9-difluoro-5-(4-chloro-3-methylphenyl)-1,2-dihydro-2,2,4-trimethyl-5H-chromeno[3,4-f]quinoline]
hPR Agonist T47D cells Eff. (%) (hPR [2]): na (na = not active (i.e. efficacy of <20 and potency of >10,000))

Emax (hPR [1]): < 20% | Emax (hPR [2]): 117% | Emax (hPR [3]): 87% | Emax (hPR [4]): < 20%
SMILES: C[C@]12CCC(=O)C=C1[C@@H]1C[C@@H]1[C@H]1[C@@H]3[C@@H]4C[C@@H]4[C@@]4(CCC(=O)O4)[C@@]3(C)CC[C@@H]12 [Drospirenone, reference compound]

EC50 (hPR [3]): 0.9 nM
SMILES: COc1ccc(F)cc1/C=C1\Oc2ccc(F)cc2-c2ccc3c(c21)C(C)=CC(C)(C)N3 [Formula II X=9-F 2-MeO-5-F-Ph, reference compound]

EC50 (hPR [3]): 0.93 nM
SMILES: COc1ccccc1/C=C1\Oc2ccc(F)cc2-c2ccc3c(c21)C(C)=CC(C)(C)N3 [Formula II X=9-F 2-MeO-Ph, reference compound]

EC50 (hPR [3]): 2 nM
SMILES: CC1=CC(C)(C)Nc2ccc3c(c21)/C(=C/c1ccncc1C)Oc1ccc(F)cc1-3 [Formula II X=9-F 3-Me-4-pyridinyl, reference compound]

EC50 (hPR [3]): 9.3 nM
SMILES: CC1=CC(C)(C)Nc2ccc3c(c21)/C(=C/c1ccccc1C)Oc1ccc(O)cc1-3 [Formula II X=9-OH 2-Me-Ph, reference compound]

EC50 (hPR [3]): 11.5 nM
SMILES: COc1ccc(F)cc1/C=C1\Oc2ccc(O)cc2-c2ccc3c(c21)C(C)=CC(C)(C)N3 [Formula II X=9-OH 2-MeO-5-F-Ph, reference compound]

EC50 (hPR [3]): 5.75 nM
SMILES: CC1=CC(C)(C)Nc2ccc3c(c21)/C(=C/c1cccc(F)c1)Oc1ccc(O)cc1-3 [Formula II X=9-OH 3-F-Ph, reference compound]

EC50 (hPR [3]): 54.4 nM
SMILES: CC1=CC(C)(C)Nc2ccc3c(c21)/C(=C/c1ccccc1)Oc1ccc(O)cc1-3 [Formula II X=9-OH Phenyl, reference compound]

EC50 (hPR [3]): 67 nM
SMILES: COc1ccc2c(c1)-c1ccc3c(c1/C(=C/c1ccccc1)O2)C(C)=CC(C)(C)N3 [Formula II X=9-OMe Phenyl, reference compound]

Emax (hPR [1]): < 20% | Emax (hPR [2]): 96% | Emax (hPR [3]): 216% | Emax (hPR [4]): < 20%
SMILES: C#C[C@]1(O)CC[C@H]2[C@@H]3CCC4=CC(=O)CC[C@@H]4[C@H]3CC[C@@]21CC [Levonorgestrel, reference compound]

hPR Agonist T47D cells Eff. (%) (hPR [2]): 114% | hPR Agonist CV-1 Cells Eff. (%) (hPR [3]; CV-1 cells): 88%
SMILES: CC(=O)O[C@]1(C(C)=O)CC[C@H]2[C@@H]3C[C@H](C)C4=CC(=O)CC[C@]4(C)[C@H]3CC[C@@]21C [MPA, reference compound]
hPR Antagonists T47D Cells Eff. (%) (hPR [1]): na (na = not active (i.e. efficacy of <20 and potency of >10,000)) | hPR Antagonist CV-1 Cells Eff. (%) (hPR [4]; CV-1 cells): na (na = not active (i.e. efficacy of <20 and potency of >10,000))

Emax (hPR [1]): < 20% | Emax (hPR [2]): 100% | Emax (hPR [3]): 100% | Emax (hPR [4]): < 20%
SMILES: CC(=O)[C@H]1CC[C@H]2[C@@H]3CCC4=CC(=O)CC[C@]4(C)[C@H]3CC[C@]12C [Prog., progesterone, reference compound]

hPR Antagonists T47D Cells Eff. (%) (hPR [1]): 94% | hPR Antagonist CV-1 Cells Eff. (%) (hPR [4]; CV-1 cells): 94%
SMILES: CC#C[C@]1(O)CC[C@H]2[C@@H]3CCC4=CC(=O)CCC4=C3[C@@H](c3ccc(N(C)C)cc3)C[C@@]21C [RU486, mifepristone, reference compound]
hPR Agonist T47D cells Eff. (%) (hPR [2]): na (na = not active (i.e. efficacy of <20 and potency of >10,000)) | hPR Agonist CV-1 Cells Eff. (%) (hPR [3]; CV-1 cells): na (na = not active (i.e. efficacy of <20 and potency of >10,000))

Emax (hPR [1]): 86% | Emax (hPR [2]): < 20% | Emax (hPR [3]): < 20% | Emax (hPR [4]): 99%
SMILES: CN(C)c1ccc([C@H]2C[C@]3(C)[C@@H](CC[C@]3(O)CCCO)[C@@H]3CCC4=CC(=O)CCC4=C32)cc1 [ZK299, reference compound]

From US7163946B2 (Ligand Pharmaceuticals Incorporated, priority 2002, dated 2007)
